Converted amounts (≈) assume the structure as drawn. The source made the active and inactive calls.
Tests used:
Pseudomonas aeruginosa = assay: Antimicrobial activity against Pseudomonas aeruginosa CIP 82.118 after 18 to 24 hrs by broth microdilution method; type: functional
Staphylococcus aureus [1] = assay: Antimicrobial activity against Staphylococcus aureus CIP 4.83 after 18 to 24 hrs by broth microdilution method; type: functional
[2] = tested on: Mycobacterium tuberculosis; assay: Antimycobacterial activity against Mycobacterium tuberculosis H37Rv assessed as growth inhibition at 0.1 uM after 6 days by MTT colorimetric microassay; type: functional, organism-based
Enterococcus hirae = assay: Antimicrobial activity against Enterococcus hirae CIP 5855 after 18 to 24 hrs by broth microdilution method; type: functional
[3] = tested on: Mycobacterium tuberculosis; assay: Antimycobacterial activity against Mycobacterium tuberculosis H37Rv assessed as growth inhibition at 10 uM after 6 days by MTT colorimetric microassay; type: functional; details: for inhibition of growth at 10 µM: 144 h, read-out: GI
Escherichia coli = assay: Antimicrobial activity against Escherichia coli CIP 53126 after 18 to 24 hrs by broth microdilution method; type: functional
Staphylococcus aureus [4] = assay: Antimicrobial activity against methicillin-resistant Staphylococcus aureus ATCC 33592 after 18 to 24 hrs by broth microdilution method; type: functional
Staphylococcus aureus [5] = assay: Antimicrobial activity against methicillin-resistant Staphylococcus aureus ATCC 33591 after 18 to 24 hrs by broth microdilution method; type: functional
Staphylococcus aureus [6] = assay: Antimicrobial activity against multidrug-resistant Staphylococcus aureus isolate 2 after 18 to 24 hrs by broth microdilution method; type: functional
Staphylococcus aureus [7] = assay: Antimicrobial activity against multidrug-resistant Staphylococcus aureus isolate 1 after 18 to 24 hrs by broth microdilution method; type: functional

| SMILES | MBC (Pseudomonas aeruginosa) [µM] | MIC (Pseudomonas aeruginosa) [µM] | MBC (Staphylococcus aureus [1]) [µM] | MIC (Staphylococcus aureus [1]) [µM] | growth inhibition (GI) [2] | MBC (Enterococcus hirae) [µM] | MIC (Enterococcus hirae) [µM] | inhibition of growth at 10 µM [3] [%] | MBC (Escherichia coli) [µM] | MIC (Escherichia coli) [µM] | growth inhibition (GI) [3] | MBC (Staphylococcus aureus [4]) [µM] | MIC (Staphylococcus aureus [4]) [µM] | MBC (Staphylococcus aureus [5]) [µM] | MIC (Staphylococcus aureus [5]) [µM] | MBC (Staphylococcus aureus [6]) [µM] | MIC (Staphylococcus aureus [6]) [µM] | MBC (Staphylococcus aureus [7]) [µM] | MIC (Staphylococcus aureus [7]) [µM] |
| --- | --- | --- | --- | --- | --- | --- | --- | --- | --- | --- | --- | --- | --- | --- | --- | --- | --- | --- | --- |
| CCCCCCCCCC(=O)OCOC(=O)c1cn2c3c(c(N4CCN(C)CC4)c(F)cc3c1=O)OC[C@@H]2C | 3.9 (≈ 2.13 µg/mL) | ≤ 0.97 | ≤ 0.97 | ≤ 0.97 | inactive | 1.9 (≈ 1.04 µg/mL) | ≤ 0.97 | > 95 | ≤ 0.97 | ≤ 0.97 | – | – | – | – | – | – | – | – | – |
| O=C(O)c1cn(C2CC2)c2cc(N3CCN(C(=O)CCCCCCCCCCCCCCCCC(=O)N4CCN(c5cc6c(cc5F)c(=O)c(C(=O)O)cn6C5CC5)CC4)CC3)c(F)cc2c1=O | 250 (≈ 235 µg/mL) | 125 (≈ 118 µg/mL) | 500 (≈ 471 µg/mL) | 125 (≈ 118 µg/mL) | inactive | 500 (≈ 471 µg/mL) | 125 (≈ 118 µg/mL) | – | 500 (≈ 471 µg/mL) | 125 (≈ 118 µg/mL) | inactive | – | – | – | – | – | – | – | – |
| O=C(O)c1cn(C2CC2)c2cc(N3CCN(C(=O)CCCCCCCCC(=O)N4CCN(c5cc6c(cc5F)c(=O)c(C(=O)O)cn6C5CC5)CC4)CC3)c(F)cc2c1=O | 125 (≈ 104 µg/mL) | 62.5 (≈ 51.8 µg/mL) | 250 (≈ 207 µg/mL) | 250 (≈ 207 µg/mL) | inactive | 250 (≈ 207 µg/mL) | 250 (≈ 207 µg/mL) | – | 250 (≈ 207 µg/mL) | 250 (≈ 207 µg/mL) | inactive | – | – | – | – | – | – | – | – |
| CCCCCCCCCCCCCCNC(=O)c1cn2c3c(c(N4CCN(C)CC4)c(F)cc3c1=O)OC[C@@H]2C | 250 (≈ 139 µg/mL) | 62.5 (≈ 34.8 µg/mL) | 31.2 (≈ 17.4 µg/mL) | 7.8 (≈ 4.34 µg/mL) | inactive | 3.9 (≈ 2.17 µg/mL) | 3.9 (≈ 2.17 µg/mL) | > 95 | 250 (≈ 139 µg/mL) | 125 (≈ 69.6 µg/mL) | – | – | – | – | – | – | – | – | – |
| CCCCCCC(=O)N1CCN(c2cc3c(cc2F)c(=O)c(C(=O)O)cn3C2CC2)CC1 | 250 (≈ 111 µg/mL) | 62.5 (≈ 27.7 µg/mL) | ≤ 0.12 | ≤ 0.03 | inactive | 31.2 (≈ 13.8 µg/mL) | 31.2 (≈ 13.8 µg/mL) | > 95 | 31.2 (≈ 13.8 µg/mL) | 31.2 (≈ 13.8 µg/mL) | – | 0.24 (≈ 0.106 µg/mL) | 0.06 (≈ 0.0266 µg/mL) | 0.48 (≈ 0.213 µg/mL) | 0.06 (≈ 0.0266 µg/mL) | > 500 | 250 (≈ 111 µg/mL) | 500 (≈ 222 µg/mL) | 62.5 (≈ 27.7 µg/mL) |
| CCCCCCCCCCC(=O)OCC(=O)N1CCN(c2cc3c(cc2F)c(=O)c(C(=O)O)cn3C2CC2)CC1 | 250 (≈ 139 µg/mL) | 62.5 (≈ 34.9 µg/mL) | ≤ 0.97 | ≤ 0.97 | inactive | 1.9 (≈ 1.06 µg/mL) | ≤ 0.97 | > 95 | 250 (≈ 139 µg/mL) | 62.5 (≈ 34.9 µg/mL) | – | 0.03 (≈ 0.0167 µg/mL) | – | 1.9 (≈ 1.06 µg/mL) | 0.97 (≈ 0.541 µg/mL) | 15.6 (≈ 8.7 µg/mL) | 7.8 (≈ 4.35 µg/mL) | 500 (≈ 279 µg/mL) | 15.6 (≈ 8.7 µg/mL) |
| CCCCCCCCC(=O)OCC(=O)N1CCN(c2cc3c(cc2F)c(=O)c(C(=O)O)cn3C2CC2)CC1 | 250 (≈ 132 µg/mL) | 31.2 (≈ 16.5 µg/mL) | ≤ 0.12 | ≤ 0.12 | inactive | ≤ 0.97 | ≤ 0.97 | > 95 | 500 (≈ 265 µg/mL) | 62.5 (≈ 33.1 µg/mL) | – | 0.02 (≈ 0.0106 µg/mL) | 0.02 (≈ 0.0106 µg/mL) | 0.24 (≈ 0.127 µg/mL) | 0.03 (≈ 0.0159 µg/mL) | 15.6 (≈ 8.26 µg/mL) | 7.8 (≈ 4.13 µg/mL) | 15.6 (≈ 8.26 µg/mL) | 7.8 (≈ 4.13 µg/mL) |
| CCCCCCCC(=O)OCC(=O)N1CCN(c2cc3c(cc2F)c(=O)c(C(=O)O)cn3C2CC2)CC1 | 250 (≈ 129 µg/mL) | 31.2 (≈ 16.1 µg/mL) | ≤ 0.001 | ≤ 0.001 | inactive | ≤ 0.97 | ≤ 0.97 | > 95 | 62.5 (≈ 32.2 µg/mL) | 31.2 (≈ 16.1 µg/mL) | – | ≤ 0.001 | ≤ 0.001 | – | ≤ 0.001 | 15.6 (≈ 8.04 µg/mL) | 15.6 (≈ 8.04 µg/mL) | 500 (≈ 258 µg/mL) | 7.8 (≈ 4.02 µg/mL) |
| CCCCCCCCCCCCNC(=O)c1cn2c3c(c(N4CCN(C)CC4)c(F)cc3c1=O)OC[C@@H]2C | 250 (≈ 132 µg/mL) | 62.5 (≈ 33 µg/mL) | 15.6 (≈ 8.25 µg/mL) | 3.9 (≈ 2.06 µg/mL) | inactive | 3.9 (≈ 2.06 µg/mL) | 3.9 (≈ 2.06 µg/mL) | > 95 | 500 (≈ 264 µg/mL) | 125 (≈ 66.1 µg/mL) | – | – | – | – | – | – | – | – | – |
| CCCCCCCCC(=O)N1CCN(c2cc3c(cc2F)c(=O)c(C(=O)O)cn3C2CC2)CC1 | 250 (≈ 118 µg/mL) | 62.5 (≈ 29.5 µg/mL) | ≤ 0.03 | ≤ 0.97 | inactive | 31.2 (≈ 14.7 µg/mL) | 31.2 (≈ 14.7 µg/mL) | > 95 | 500 (≈ 236 µg/mL) | 31.2 (≈ 14.7 µg/mL) | – | 0.24 (≈ 0.113 µg/mL) | 0.12 (≈ 0.0566 µg/mL) | 0.24 (≈ 0.113 µg/mL) | 0.02 (≈ 0.00943 µg/mL) | 500 (≈ 236 µg/mL) | 31.2 (≈ 14.7 µg/mL) | 500 (≈ 236 µg/mL) | 31.2 (≈ 14.7 µg/mL) |

From ChEMBL document CHEMBL1914411, “Synthesis of lipophilic dimeric C-7/C-7-linked ciprofloxacin and C-6/C-6-linked levofloxacin derivatives. Versatile in vitro biological evaluations of monomeric and dimeric fluoroquinolone derivatives as potential antitumor, antibacterial or antimycobacterial agents” (Eur J Med Chem, 2011)
